System: Meloidogyne incognita
Experiment: Meloidogyne incognita test (MELGIN), gall formation on salad seedlings in sand
Type: in vivo
Details: 0% = galls equal to untreated control
Description: Meloidogyne incognita—Test (MELGIN)
To produce a suitable preparation of active compound, 1 part by weight of active compound is mixed with the stated amount of solvent, and the concentrate is diluted with emulsifier-containing water to the desired concentration.
Vessels are filled with sand, a solution of the active ingredient, a suspension containing eggs and larvae of Meloidogyne incognita and salad seeds. The salad seeds germinate and the seedlings grow. Galls develop on the roots.
After the specified period the nematicidal activity is determined on the basis of the percentage of gall formation. 100% means that no galls were found; 0% means that the number of galls found on the roots of the treated plants was equal to that in untreated control plants.

Compound	Gall-formation efficacy in % after 21 d (100% = no galls) (4 ppm)	Gall-formation efficacy in % after 21 d (100% = no galls) (0.125 ppm)
CNC(=O)c1cc(C#N)cc(C)c1NC(=O)c1cc(Br)nn1-c1ncccc1Cl [Cyazypyr, cyazypyr]	6%	
O=C(NCCc1ncc(C(F)(F)F)cc1Cl)c1ccccc1C(F)(F)F [Fluopyram, N-{2-[3-chloro-5-(trifluoromethyl)-2-pyridinyl]ethyl}-2-trifluoromethylbenzamide]		56%
